“And” between values parts separate entries of the source, which are not always exact repeats. Equal values may be shown once.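 96-well plates; 48 h exposure; 5 concentrations. Endpoints by linear interpolation between flanking doses. Not reached: highest tested concentration assigned. Abbreviation: GI50, concentration required for 50% inhibition of growth. TGI: concentration producing complete growth inhibition.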 *1 amine or outer side, *2 acyl side, *3 side chain or, on linkers, in order; H or OH if unused. Where a SMILES comes first, the peptide text is derived from it. [ ]: non-standard residue; d: D form. The star is where a group is joined. Phe(4-NO2) = N[CH](Cc1ccc([N+](=O)[O-])cc1)C(=O)O; X32 = C[C@H](N[*:1])C(=O)C(C)(C)C(=O)[*:2]; Hmpa(2S,3S) = CC[C@H](C)[C@H](O)C(=O)O; NMeY = CN[C@@H](Cc1ccc(O)cc1)C(=O)O; NMeL = CN[C@@H](CC(C)C)C(=O)O; NMeV = CN[C@H](C(=O)O)C(C)C; Boc = CC(C)(C)OC(=O)*; βAla = NCCC(=O)O
How the values were obtained:
Assay in all cases: NCI tumour cell line growth inhibition, 48 h
[1] = test system: HL-60(TB) leukemia
[2] = test system: EKVX NSCLC
[3] = test system: SW-620 colon
[4] = test system: MCF7 breast
[5] = test system: MDA-MB-231 breast
[6] = test system: SNB-19 CNS
[7] = test system: SK-MEL-2 melanoma
[8] = test system: BT-549 breast
[9] = test system: NCI-H23 lung
[10] = test system: T-47D breast

Structure (SMILES) | TGI [1] | TGI [2] | TGI [3] | TGI [4] | TGI [5] | TGI [6] | TGI [7] | TGI [8] | TGI [9] | TGI [10] | GI50 [5]
CC(=O)OCc1ccc2oc(=O)c(C(=O)Oc3ccccc3)cc2c1 | > 100 µM | > 100 µM | > 100 µM | > 100 µM | 84.2 µM | > 100 µM | > 100 µM | > 100 µM | > 100 µM | 37.3 µM | –
COC(=O)C1OC(O[C@H]2CC[C@]3(C)[C@H]4CC=C5[C@@H]6CC(C)(C)CC[C@]6(C(=O)OC6OCC(O)C(O)C6OC6OC(C)C(OC7OCC(O)C(O)C7O)C(O)C6O)CC[C@@]5(C)[C@]4(C)CC[C@H]3C2(C)C)C(O)C(O)C1O (stereo partly specified) | 41.3 µM and 35.1 µM | 33.7 µM and 32 µM | 39.5 µM and 48.7 µM | 27.2 µM and 25.7 µM | 20.1 µM and 12.6 µM | 31.2 µM and 27.2 µM | 31.8 µM and 34.7 µM | 34.1 µM and 33.2 µM | 29.1 µM and 30 µM | > 100 µM and 54.2 µM | 7.51 µM and 2.75 µM
NC(N)=Nc1ccc(CC(N)C(=O)O)cc1 (stereo unspecified) | > 12.5 µM | > 12.5 µM | > 12.5 µM | > 12.5 µM | > 12.5 µM | – | > 12.5 µM | > 12.5 µM | > 12.5 µM | > 12.5 µM | –
N#C/C(N)=C(\C#N)NC(=O)C(=O)N/C(C#N)=C(\N)C#N | – | > 100 µM | > 100 µM | > 100 µM | > 100 µM | > 100 µM | > 100 µM | > 100 µM | > 100 µM | > 100 µM | –
O=C(NNC(=S)NC1CCCCC1)c1csc(NC(=S)NC2CCCCC2)n1 | > 100 µM | > 100 µM | 19.5 µM | > 100 µM | 45.1 µM | 44.8 µM | 33.7 µM | 21.1 µM | 45.2 µM | 74.6 µM | –
COc1cc(/C=C/C(=O)C2(C(=O)/C=C/c3cc(OC)c(OC)c(OC)c3)CCCCC2)cc(OC)c1OC | > 100 µM | > 100 µM | > 100 µM | > 100 µM | > 100 µM | > 100 µM | > 100 µM | 91.9 µM | > 100 µM | > 100 µM | –
COc1ccc(C(=O)/C=C/c2cc(O)c(O)c(F)c2F)c(OC)c1 | 25.5 µM | > 100 µM | > 100 µM | 49.1 µM | 58.2 µM | > 100 µM | 33.6 µM | 70.5 µM | 41.7 µM | > 100 µM | –
O=C1Oc2cc(O)cc(/C=C/c3ccc(O)cc3)c2[C@@]12c1c(O)cc(O)cc1OC2c1cccc(O)c1 (stereo partly specified) | 97.9 µM | > 100 µM | – | > 100 µM | 95.9 µM | 91.6 µM | 54.8 µM | > 100 µM | 73.4 µM | > 100 µM | –
COC(=O)c1ccccc1C1CN=NC12Cc1cc(C)ccc1C2=O (stereo unspecified) | > 100 µM | > 100 µM | > 100 µM | 75.4 µM | > 100 µM | > 100 µM | > 100 µM | > 100 µM | > 100 µM | > 100 µM | –
CC[C@H](C)[C@@H]1OC(=O)CCNC(=O)[C@@H](C)NC(=O)C(C)(C)C(=O)[C@H](C)NC(=O)[C@H](Cc2ccc(OC)cc2)N(C)C(=O)[C@H](C(C)C)N(C)C(=O)CNC(=O)[C@H](CC(C)C)N(C)C(=O)CNC1=O (cyclo(G[NMeL]G[NMeV][NMeY](Me)[X32][dA][βAla][Hmpa(2S,3S)])) | – | 22.7 µM | > 50 µM | > 50 µM | 11.2 µM | 9.63 µM | 6.48 µM | 13.6 µM | > 50 µM | > 50 µM | –
Nn1c(Cc2ccc([N+](=O)[O-])cc2)n[nH]c1=O | > 100 µM | > 100 µM | > 100 µM | > 100 µM | > 100 µM | > 100 µM | > 100 µM | > 100 µM | > 100 µM | > 100 µM | –
N[C@H]1CCCC[C@@H]1N1C(=O)c2ccccc2C1(O)c1ccc(Cl)cc1 (stereo partly specified) | 20 µM | 30.1 µM | 24.2 µM | 27.5 µM | 27.5 µM | 27.6 µM | 30.6 µM | 28.8 µM | 28.6 µM | 14.7 µM | –
Cc1nc2c(=O)n(C)ncc2[nH]1 | > 100 µM | > 100 µM | > 100 µM | > 100 µM | > 100 µM | > 100 µM | > 100 µM | > 100 µM | > 100 µM | > 100 µM | –
CCCCCCCCCCCCCCCCCCN(C)CC(COP(=O)([O-])OCC[N+](C)(C)C)OC (stereo unspecified) | 11.1 µM | 48.2 µM | 47 µM | > 62.3 µM | > 100 µM | 18.5 µM | 53.7 µM | > 100 µM | 49.3 µM | > 100 µM | –
Cc1ccc(S(=O)(=O)NNCNC(=O)c2ccccc2)cc1 | 48.2 µM | > 100 µM | > 100 µM | > 100 µM | > 100 µM | > 100 µM | > 100 µM | > 100 µM | > 100 µM | > 100 µM | –
O=C1C(c2c(O)[nH]c3ccc(Br)cc23)=Nc2ccccc21 | > 100 µM | 20.2 µM | > 100 µM | 3.72 µM | 37.2 µM | 28.1 µM | 28.3 µM | 41 µM | 40.1 µM | 64.2 µM | –
CCC(C#N)NCc1cccc(CNC(C#N)CC)c1 (stereo unspecified) | > 100 µM | > 100 µM | > 100 µM | > 100 µM | > 100 µM | > 100 µM | > 100 µM | > 100 µM | > 100 µM | > 100 µM | –
NC(=S)N/N=C\c1nccc2ccccc12 | 40.4 µM | 2.21 µM | > 100 µM | 11.9 µM | 35.7 µM | > 100 µM | > 100 µM | 13.9 µM | > 100 µM | > 100 µM | –
O=[N+]([O-])c1ccc(N/N=C/c2ccc(OCCCCCCCCCCCO)cc2)c([N+](=O)[O-])c1 | 31.2 µM | 52.1 µM | > 100 µM | > 93.6 µM | > 94.7 µM | 27.1 µM | 56.1 µM | 15.5 µM | 45.8 µM | > 100 µM | –
CNC(=O)CCC(NC(=O)OC(C)(C)C)C(=O)NC(Cc1ccc([N+](=O)[O-])cc1)C(=O)NCC(=O)NC (stereo unspecified) (Boc-Glu(NHMe)-[Phe(4-NO2)]-Gly-NHMe; configuration not given here) | > 100 µM | > 100 µM | > 100 µM | > 100 µM | > 100 µM | > 100 µM | – | > 100 µM | > 100 µM | > 100 µM | –
